How the values were obtained:
Experiment in all cases: relative viability (nuclei count vs DMSO), 5 days (fraction); higher = more cells survive
PC-3 [JPC-3] = test system: PC-3 [JPC-3]
In short: (§1)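 Relative viability divides the nuclei count in treated wells by that in vehicle wells. Lung cancer cell lines were seeded in 1536-well plates, dosed by pin tool the next day, and fixed and stained after 5 days in one step with final 0.05% Triton X-100, 1% formaldehyde and 1 ug/ml Hoechst. Dosing was a single drug or a fixed anchor-drug dose plus five library-drug doses (not always all listed) in √10 steps, and values are medians of duplicate plates imaged at 4×.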

NCI-H1915 = test system: NCI-H1915
In short: as §1

201T = test system: 201T
In short: as §1

CAL-12T = test system: CAL-12T
In short: as §1

NCI-H2087 = test system: NCI-H2087
In short: as §1

NCI-H1792 = test system: NCI-H1792
In short: as §1

NCI-H650 = test system: NCI-H650
In short: as §1

BEN = test system: BEN
In short: as §1

LCLC-97TM1 = test system: LCLC-97TM1
In short: as §1

NCI-H727 = test system: NCI-H727
In short: as §1

H3255 = test system: H3255
In short: as §1

ABC-1 = test system: ABC-1
In short: as §1

NCI-H1944 = test system: NCI-H1944
In short: as §1

NCI-H460 = test system: NCI-H460
In short: as §1

A-427 = test system: A-427
In short: as §1

NCI-H1651 = test system: NCI-H1651
In short: as §1

NCI-H596 = test system: NCI-H596
In short: as §1

NCI-H441 = test system: NCI-H441
In short: as §1

LC-2-ad = test system: LC-2-ad
In short: as §1

Structure (SMILES): CC1(C)CCC(c2ccc(Cl)cc2)=C(CN2CCN(c3ccc(C(=O)NS(=O)(=O)c4ccc(N[C@H](CCN5CCOCC5)CSc5ccccc5)c(S(=O)(=O)C(F)(F)F)c4)cc3)CC2)C1 [Navitoclax] + NC(=O)Nc1cc(-c2cccc(F)c2)sc1C(=O)N[C@H]1CCCNC1 [AZD7762] (partner 0.2 µM)
- relative viability (PC-3 [JPC-3]; first compound 0.005 µM): 0.726
- relative viability (PC-3 [JPC-3]; first compound 0.01581 µM): 0.972
- relative viability (PC-3 [JPC-3]; first compound 0.05 µM): 0.483
- relative viability (PC-3 [JPC-3]; first compound 0.1581 µM): 0.702
- relative viability (PC-3 [JPC-3]; first compound 0.5 µM): 0.759
- relative viability (NCI-H1915; first compound 0.005 µM): 0.726
- relative viability (NCI-H1915; first compound 0.01581 µM): 0.697
- relative viability (NCI-H1915; first compound 0.05 µM): 0.657
- relative viability (NCI-H1915; first compound 0.1581 µM): 0.639
- relative viability (NCI-H1915; first compound 0.5 µM): 0.597
- relative viability (201T; first compound 0.005 µM): 0.656
- relative viability (201T; first compound 0.01581 µM): 0.656
- relative viability (201T; first compound 0.05 µM): 0.41
- relative viability (201T; first compound 0.1581 µM): 0.565
- relative viability (201T; first compound 0.5 µM): 0.504
- relative viability (CAL-12T; first compound 0.005 µM): 0.626
- relative viability (CAL-12T; first compound 0.01581 µM): 0.593
- relative viability (CAL-12T; first compound 0.05 µM): 0.627
- relative viability (CAL-12T; first compound 0.1581 µM): 0.619
- relative viability (CAL-12T; first compound 0.5 µM): 0.541
- relative viability (NCI-H2087; first compound 0.005 µM): 1.18
- relative viability (NCI-H2087; first compound 0.01581 µM): 1.38
- relative viability (NCI-H2087; first compound 0.1581 µM): 1.29
- relative viability (NCI-H2087; first compound 0.5 µM): 1.41
- relative viability (NCI-H1792; first compound 0.005 µM): 0.593
- relative viability (NCI-H1792; first compound 0.01581 µM): 0.77
- relative viability (NCI-H1792; first compound 0.1581 µM): 0.559
- relative viability (NCI-H1792; first compound 0.5 µM): 0.502
- relative viability (NCI-H650; first compound 0.005 µM): 0.946
- relative viability (NCI-H650; first compound 0.01581 µM): 1.12
- relative viability (NCI-H650; first compound 0.05 µM): 1.13
- relative viability (NCI-H650; first compound 0.1581 µM): 0.801
- relative viability (NCI-H650; first compound 0.5 µM): 0.937
- relative viability (BEN; first compound 0.005 µM): 0.705
- relative viability (BEN; first compound 0.01581 µM): 0.667
- relative viability (BEN; first compound 0.05 µM): 0.647
- relative viability (BEN; first compound 0.1581 µM): 0.725
- relative viability (BEN; first compound 0.5 µM): 0.377
- relative viability (LCLC-97TM1; first compound 0.005 µM): 0.236
- relative viability (LCLC-97TM1; first compound 0.01581 µM): 0.301
- relative viability (LCLC-97TM1; first compound 0.05 µM): 0.181
- relative viability (LCLC-97TM1; first compound 0.1581 µM): 0.253
- relative viability (LCLC-97TM1; first compound 0.5 µM): 0.22
- relative viability (NCI-H727; first compound 0.005 µM): 0.656
- relative viability (NCI-H727; first compound 0.01581 µM): 0.595
- relative viability (NCI-H727; first compound 0.05 µM): 0.539
- relative viability (NCI-H727; first compound 0.1581 µM): 0.674
- relative viability (NCI-H727; first compound 0.5 µM): 0.594
- relative viability (H3255; first compound 0.005 µM): 0.891
- relative viability (H3255; first compound 0.01581 µM): 1.03
- relative viability (H3255; first compound 0.05 µM): 0.851
- relative viability (H3255; first compound 0.1581 µM): 0.922
- relative viability (H3255; first compound 0.5 µM): 0.805
- relative viability (ABC-1; first compound 0.005 µM): 0.816
- relative viability (ABC-1; first compound 0.01581 µM): 1.22
- relative viability (ABC-1; first compound 0.1581 µM): 0.687
- relative viability (ABC-1; first compound 0.5 µM): 0.72
- relative viability (NCI-H1944; first compound 0.005 µM): 0.52
- relative viability (NCI-H1944; first compound 0.01581 µM): 0.637
- relative viability (NCI-H1944; first compound 0.1581 µM): 0.489
- relative viability (NCI-H1944; first compound 0.5 µM): 0.582
- relative viability (NCI-H460; first compound 0.005 µM): 0.575
- relative viability (NCI-H460; first compound 0.01581 µM): 0.622
- relative viability (NCI-H460; first compound 0.05 µM): 0.322
- relative viability (NCI-H460; first compound 0.1581 µM): 0.573
- relative viability (NCI-H460; first compound 0.5 µM): 0.532
- relative viability (A-427; first compound 0.005 µM): 0.79
- relative viability (A-427; first compound 0.01581 µM): 0.822
- relative viability (A-427; first compound 0.05 µM): 0.639
- relative viability (A-427; first compound 0.1581 µM): 0.722
- relative viability (A-427; first compound 0.5 µM): 0.718
- relative viability (NCI-H1651; first compound 0.005 µM): 0.485
- relative viability (NCI-H1651; first compound 0.01581 µM): 0.488
- relative viability (NCI-H1651; first compound 0.05 µM): 0.335
- relative viability (NCI-H1651; first compound 0.1581 µM): 0.474
- relative viability (NCI-H1651; first compound 0.5 µM): 0.466
- relative viability (NCI-H596; first compound 0.005 µM): 1.32
- relative viability (NCI-H596; first compound 0.01581 µM): 1.26
- relative viability (NCI-H596; first compound 0.05 µM): 0.919
- relative viability (NCI-H596; first compound 0.1581 µM): 1.05
- relative viability (NCI-H596; first compound 0.5 µM): 1.05
- relative viability (NCI-H441; first compound 0.005 µM): 1.12
- relative viability (NCI-H441; first compound 0.01581 µM): 1.19
- relative viability (NCI-H441; first compound 0.05 µM): 1.22
- relative viability (NCI-H441; first compound 0.1581 µM): 1.04
- relative viability (NCI-H441; first compound 0.5 µM): 1.24
- relative viability (LC-2-ad; first compound 0.005 µM): 0.835
- relative viability (LC-2-ad; first compound 0.01581 µM): 0.957
- relative viability (LC-2-ad; first compound 0.05 µM): 0.796
- relative viability (LC-2-ad; first compound 0.1581 µM): 0.815
- relative viability (LC-2-ad; first compound 0.5 µM): 0.822
